Data from PMC11170969, “Photoaffinity probe‐based antimalarial target identification of artemisinin in the intraerythrocytic developmental cycle of Plasmodium falciparum” (iMeta, 2024).

What was measured:
PfLDH = target: T1, PfLDH (Plasmodium falciparum, UniProt Q76NM3); assay: enzyme activity inhibition; format: biochemical; conditions: binding also shown by DARTS; activity assay conditions not stated in main text
T1 construct: gene PF3D7_1324900; recombinant, pET-28a(+), E. coli BL21(DE3), Ni-NTA

PfGAPDH = target: T2, PfGAPDH (Plasmodium falciparum, UniProt Q8IKK7); assay: enzyme activity inhibition; format: biochemical; conditions: binding also shown by DARTS; activity assay conditions not stated in main text; covalent Glu59 adduct suggested by MS in a separate test with hemin and ascorbate
T2 construct: gene PF3D7_1462800; recombinant, pET-28a(+), E. coli BL21(DE3), Ni-NTA

PfOAT = target: T3, PfOAT (Plasmodium falciparum, UniProt Q6LFH8); assay: OAT activity assay kit, absorbance at […] nm; format: biochemical; conditions: without heme activation (also tested with heme activation); 1 h preincubation; methods name the inhibitor ART, 0-80 μM
T3 construct: gene OAT; recombinant, pET-28a(+), E. coli BL21(DE3), Ni-NTA
T3 sequence (Q6LFH8 1-414): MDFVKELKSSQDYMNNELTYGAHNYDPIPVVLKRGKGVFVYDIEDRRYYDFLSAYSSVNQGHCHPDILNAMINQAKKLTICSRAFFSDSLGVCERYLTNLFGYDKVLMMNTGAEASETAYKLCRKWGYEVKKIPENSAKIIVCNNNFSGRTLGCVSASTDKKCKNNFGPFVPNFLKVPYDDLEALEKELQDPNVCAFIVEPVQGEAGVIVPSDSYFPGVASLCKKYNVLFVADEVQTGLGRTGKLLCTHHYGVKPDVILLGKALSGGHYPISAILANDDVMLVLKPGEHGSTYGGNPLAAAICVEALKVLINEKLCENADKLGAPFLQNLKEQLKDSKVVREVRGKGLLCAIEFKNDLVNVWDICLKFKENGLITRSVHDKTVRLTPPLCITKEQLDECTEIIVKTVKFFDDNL

PfTIM = target: T4, PfTIM (Plasmodium falciparum, UniProt Q7KQM0); assay: enzyme activity inhibition; format: biochemical; conditions: binding also shown by DARTS; activity assay conditions not stated in main text
T4 construct: gene TPI; recombinant, pET-28a(+), E. coli BL21(DE3), Ni-NTA

PfEGF1‐α = target: T5, PfEGF1‐α (Plasmodium falciparum, UniProt Q8I0P6); assay: DARTS; competition with APP photolabelling; format: binding; conditions: DARTS: 5 μM protein, room temperature, 2 h, pronase; competition: 10 μM ATS
T5 construct: gene PF3D7_1357000; recombinant, pET-28a(+), E. coli BL21(DE3), Ni-NTA
T5 sequence (Q8I0P6 1-443): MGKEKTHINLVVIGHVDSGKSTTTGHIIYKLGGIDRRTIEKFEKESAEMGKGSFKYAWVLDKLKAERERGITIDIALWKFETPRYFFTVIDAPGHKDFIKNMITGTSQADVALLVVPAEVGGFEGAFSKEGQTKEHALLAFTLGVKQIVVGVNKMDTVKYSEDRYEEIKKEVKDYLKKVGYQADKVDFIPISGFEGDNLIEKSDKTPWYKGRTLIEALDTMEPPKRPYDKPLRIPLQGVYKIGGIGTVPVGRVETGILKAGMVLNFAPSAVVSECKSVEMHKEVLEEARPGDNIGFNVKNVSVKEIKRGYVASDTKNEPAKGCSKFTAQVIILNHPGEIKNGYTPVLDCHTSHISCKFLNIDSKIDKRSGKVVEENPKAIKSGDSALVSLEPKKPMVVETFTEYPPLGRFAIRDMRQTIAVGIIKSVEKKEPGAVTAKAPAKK

T1 sequence (Q76NM3 1-316): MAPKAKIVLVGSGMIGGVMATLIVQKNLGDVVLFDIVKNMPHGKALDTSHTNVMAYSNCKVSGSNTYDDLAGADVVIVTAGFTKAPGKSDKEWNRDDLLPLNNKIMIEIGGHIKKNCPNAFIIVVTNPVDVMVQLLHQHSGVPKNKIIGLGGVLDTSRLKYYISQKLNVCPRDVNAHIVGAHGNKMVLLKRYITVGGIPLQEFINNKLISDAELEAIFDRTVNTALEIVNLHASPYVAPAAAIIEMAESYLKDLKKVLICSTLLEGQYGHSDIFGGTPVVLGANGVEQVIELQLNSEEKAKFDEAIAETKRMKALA
T4 sequence (Q7KQM0 whole entry): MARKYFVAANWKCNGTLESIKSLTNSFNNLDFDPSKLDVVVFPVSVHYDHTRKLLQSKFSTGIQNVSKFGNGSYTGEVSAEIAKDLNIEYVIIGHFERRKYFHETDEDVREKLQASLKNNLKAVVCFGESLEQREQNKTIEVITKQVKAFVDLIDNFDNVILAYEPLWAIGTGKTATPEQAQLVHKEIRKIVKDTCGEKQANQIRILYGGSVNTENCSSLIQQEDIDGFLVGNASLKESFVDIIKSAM
T2 sequence (Q8IKK7 entry or part of it): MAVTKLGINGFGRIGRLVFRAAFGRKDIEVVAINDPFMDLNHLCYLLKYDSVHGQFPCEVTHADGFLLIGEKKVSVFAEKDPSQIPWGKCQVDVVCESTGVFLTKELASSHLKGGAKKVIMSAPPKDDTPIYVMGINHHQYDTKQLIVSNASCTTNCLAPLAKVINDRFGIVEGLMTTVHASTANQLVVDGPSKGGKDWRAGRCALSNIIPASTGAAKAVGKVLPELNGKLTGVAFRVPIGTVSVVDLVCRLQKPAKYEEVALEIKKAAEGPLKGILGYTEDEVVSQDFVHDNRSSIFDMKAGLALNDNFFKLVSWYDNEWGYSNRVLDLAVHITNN

C[C@H]1[C@H](OC(=O)CCC(=O)O)O[C@@H]2O[C@@]3(C)CC[C@H]4[C@H](C)CC[C@@H]1[C@@]24OO3 [ATS, artesunate]
half-maximal inhibitory concentration (PfLDH): the half‐maximal inhibitory concentrations were at low micromolar concentrations
half-maximal inhibitory concentration (PfGAPDH): the half‐maximal inhibitory concentrations were at low micromolar concentrations
OAT activity assay kit, absorbance at 340 nm (PfOAT): ATS can significantly inhibit its enzyme activity in both heme‐activated and nonactivated states
half-maximal inhibitory concentration (PfTIM): the half‐maximal inhibitory concentrations were at low micromolar concentrations
DARTS; competition with APP photolabelling (PfEGF1‐α): the PfEGF1‐α proteins became more resistant to proteolysis after incubation with ATS
